In US20130190327A1, “BIS-FATTY ACID CONJUGATES AND THEIR USES” (CATABASIS PHARMACEUTICALS INC, priority 2010, published 2013):
pIC50: −log10 of the molar value.

How the values were obtained:
NF-κB = NF-κB luciferase reporter assay in RAW 264.7 macrophages; type: cell-based; details: Mus musculus, RAW264.7; RAW 264.7 reporter cells, 2 hour pretreatment, 200 ng/ml LPS for 3 hours; read-out: NF-kB inhibitory activity IC50
Protocol: RAW 264.7 cells stably expressing a 3× NFkB response elemement-drive luciferase reporter were seeded into 96 well plates in sera-free medium (Optimem) 18 hours prior to compound application. Compounds of the invention were prepared by first making 100 mM stock solutions in EtOH. Stock solutions were then diluted 1:100 in low LPS FBS (Gemini BenchMark 100-106), mixed vigorously and allowed to incubate at room temperature for 30 minutes. 1:2 serial dilutions were then made in FBS supplemented with 1% EtOH, mixed vigorously, and again allowed to incubate at room temperature for 30 minutes before adding to RAW 264.7 reporter cells (final concentrations: 10% FBS, 100 uM highest compound dilution, 0.1% EtOH) for a 2 hour pretreatment prior to stimulation with LPS. Cells were then stimulated with 200 ng/ml LPS or vehicle control for 3 hours in the presence of the compounds of the invention. A set of six vehicles was left unstimulated with LPS in order to measure the assay floor. AlamarBlue viability dye (Invitrogen) was added to cells simultaneously with the delivery of LPS (final AlamarBlue concentration of 10%).
After the 3 h incubation period with LPS, cell viability was measured by reading fluorescence (excitation 550 nm, emission 595 nm) with a Perkin Elmer Victor V plate reader. Then cell media was aspirated from each well. Luciferase signal was then developed by addition of the Britelite Plus reagent (Perkin Elmer). Luciferase activity was measured with the Perkin Elmer Victor V plate reader. NF-κB activity was expressed as a percent of the vehicle control wells (stimulated with LPS). Compounds were tested at 6 dose point titrations in triplicate to determine IC50 values. Table 1 summarizes the […] values for a number of bis-fatty acid conjugates in this NF-κB luciferase reporter assay.

[1] = test system: ApoB secretion in HepG2 cells; assay: ApoB secretion in HepG2 cells (ELISA); type: cell-based; details: Homo sapiens, incubated for 16 hours, FIG. 1, read-out: IC50 (concentration at which 50% of ApoB secretion is inhibited)
Protocol: HepG2 cells (ATCC) are seeded at 25,000 cells per well in collagen-coated 96-well plates in growth media (DMEM with 10% fetal bovine serum). The following day, bis-fatty acid conjugates are complexed to lipoprotein-deficient fetal bovine serum at the appropriate concentration. Growth media is then removed from and the HepG2 cells are washed once with PBS. The lipoprotein-deficient FBS with the complexed bis-fatty acid conjugates is added to DMEM for a final 10% concentration. Each concentration of bis-fatty acid is tested in triplicate. Cells are incubated for 16 hours with the bis-fatty acid. Alamar Blue® (Invitrogen) is then added to the media to determine cell viability per the manufacturer's instructions. Two hours after Alamar Blue® addition, the media is removed and placed in a black 96-well plate. The plate is then read at 550 nm/590 nm to determine cell viability. The media is then used to determine ApoB concentrations using ELISA kits (Mabtech AB). Percent inhibition of ApoB secretion is determined by normalizing data to vehicle treated wells. For a given compound, an IC50 (concentration at which 50% of ApoB secretion is inhibited) can also be determined by using a 4 parameter-fit inhibition curve model (Graph Pad Prism®).

Compound	pIC50 (NF-κB)	pIC50 [1]
CC/C=C\C/C=C\C/C=C\C/C=C\C/C=C\C/C=C\CCC(=O)O [DHA, docosahexaenoic acid, reference compound]	< 3.70	
CC/C=C\C/C=C\C/C=C\C/C=C\C/C=C\C/C=C\CCC(=O)N[C@H](C(=O)OC)[C@@H](C)OC(=O)[C@H](C)NC(=O)CCC/C=C\C/C=C\C/C=C\C/C=C\C/C=C\CC [I-65, (2S,3R)-methyl 2-((4Z,7Z,10Z,13Z,16Z,19Z)-docosa-4,7,10,13,16,19-hexaenamido)-3-((S)-2-((5Z,8Z,11Z,14Z,17Z)-icosa-5,8,11,14,17-pentaenamido)propanoyloxy)butanoate]	> 4.30	
CC/C=C\C/C=C\C/C=C\C/C=C\C/C=C\CCCC(=O)N[C@@H](CCCCNC(=O)CCCC[C@@H]1CCSS1)C(=O)O [I-107, (S)-6-((R)-5-[1,2]dithiolan-3-yl-pentanoylamino)-2-((5Z,8Z,11Z,14Z,17Z)-icosa-5,8,11,14,17-pentaenoylamino)-hexanoic acid]	> 3.70	
CC/C=C\C/C=C\C/C=C\C/C=C\C/C=C\C/C=C\CCC(=O)N[C@@H](C)C(=O)O[C@H](C)[C@H](NC(=O)CCC/C=C\C/C=C\C/C=C\C/C=C\C/C=C\CC)C(=O)OC [I-66, (2S,3R)-methyl 3-((S)-2-((4Z,7Z,10Z,13Z,16Z,19Z)-docosa-4,7,10,13,16,19-hexaenamido)propanoyloxy)-2-((5Z,8Z,11Z,14Z,17Z)-icosa-5,8,11,14,17-pentaenamido)butanoate]	> 4.30	5.02
CC/C=C\C/C=C\C/C=C\C/C=C\C/C=C\CCCC(=O)O [EPA, eicosapentaenoic acid, reference compound]	< 3.70	

Next, values leading:

pIC50 (NF-κB)	pIC50 [1]	Compound
> 3.70		CC/C=C\C/C=C\C/C=C\C/C=C\C/C=C\C/C=C\CCC(=O)NCCNC(=O)CC/C=C\C/C=C\C/C=C\C/C=C\C/C=C\C/C=C\CC [I-1, (4Z,7Z,10Z,13Z,16Z,19Z)-docosa-4,7,10,13,16,19-hexaenoic acid [2-((4Z,7Z,10Z,13Z,16Z,19Z)-docosa-4,7,10,13,16,19-hexaenoylamino)-ethyl]-amide]
> 4.30		CC/C=C\C/C=C\C/C=C\C/C=C\C/C=C\C/C=C\CCC(=O)NCCN(C)CCNC(=O)CCC/C=C\C/C=C\C/C=C\C/C=C\C/C=C\CC [I-39, (4Z,7Z,10Z,13Z,16Z,19Z)-docosa-4,7,10,13,16,19-hexaenoic acid (2-{[2((5Z,8Z,11Z,14Z,17Z)-icosa-5,8,11,14,17-pentaenoylamino)-ethyl]-methyl-amino}-ethyl)-amide]
> 3.70		CC/C=C\C/C=C\C/C=C\C/C=C\C/C=C\C/C=C\CCC(=O)N1CCN(C(=O)CCC/C=C\C/C=C\C/C=C\C/C=C\C/C=C\CC)CC1 [I-67, (4Z,7Z,10Z,13Z,16Z,19Z)-1-[4-((5Z,8Z,11Z,14Z,17Z)-icosa-5,8,11,14,17-pentaenoyl)-piperazin-1-yl]-docosa-4,7,10,13,16,19-hexaen-1-one]
> 4.30		CC/C=C\C/C=C\C/C=C\C/C=C\C/C=C\C/C=C\CCC(=O)NCCN(C)CCNC(=O)CC/C=C\C/C=C\C/C=C\C/C=C\C/C=C\C/C=C\CC [I-2, (4Z,7Z,10Z,13Z,16Z,19Z)-docosa-4,7,10,13,16,19-hexaenoic acid (2-{[2-((4Z,7Z,10Z,13Z,16Z,19Z)-docosa-4,7,10,13,16,19-hexaenoylamino)-ethyl]-methyl-amino}-ethyl)-amide]
> 3.70		CC/C=C\C/C=C\C/C=C\C/C=C\C/C=C\C/C=C\CCC(=O)NCCNC(=O)CCC/C=C\C/C=C\C/C=C\C/C=C\C/C=C\CC [I-37, (4Z,7Z,10Z,13Z,16Z,19Z)-docosa-4,7,10,13,16,19-hexaenoic acid [2-((5Z,8Z,11Z,14Z,17Z)-icosa-5,8,11,14,17-pentaenoylamino)-ethyl]-amide]
> 4.30		CC/C=C\C/C=C\C/C=C\C/C=C\C/C=C\C/C=C\CCC(=O)N[C@@H](CCCCNC(=O)CCC/C=C\C/C=C\C/C=C\C/C=C\C/C=C\CC)C(=O)O [I-45, (S)-2-((4Z,7Z,10Z,13Z,16Z,19Z)-docosa-4,7,10,13,16,19-hexaenoylamino)-6-((5Z,8Z,11Z,14Z,17Z)-icosa-5,8,11,14,17-pentaenoylamino)-hexanoic acid]
